According to PubChem BioAssay AID330 (DTP/NCI, 2004):
“And” between values parts separate entries of the source, which are not always exact repeats. Equal entries are not always repeated. Inconclusive results and toxic doses are left out.

System: P388 leukemia ip, CD2F1 mice, survival T/C
Assay: NCI In Vivo Anticancer Drug Screen. Data for tumor model P388 Leukemia (intraperitoneal) in CD2F1 (CDF1) mice
Details: endpoint: median survival time, higher = longer survival
Experimental: The antitumor activity of compounds was measured in mice bearing transplantable tumors. Survival or tumor size were measured and the results are expressed as the measurement made in the treated group (T) divided by the measurement made in the vehicle treated control group (C). The tumor model used in this assay is P388 Leukemia (intraperitoneal) in CD2F1 (CDF1) mice

[1] = dose: 100.0 mg/kg/injection, schedule: Q04DX003 (ip), vehicle: Klucel (hydroxypropylcellulose) (HPC)
[2] = dose: 200.0 mg/kg/injection, schedule: Q04DX003 (ip), vehicle: Klucel (hydroxypropylcellulose) (HPC)
[3] = dose: 400.0 mg/kg/injection, schedule: Q04DX003 (ip), vehicle: Klucel (hydroxypropylcellulose) (HPC)
[4] = dose: 100.0 mg/kg/injection, schedule: Q01DX005 (ip), vehicle: saline with Tween-80
[5] = dose: 200.0 mg/kg/injection, schedule: Q01DX005 (ip), vehicle: saline with Tween-80

Cc1nc(-c2ccccc2)nc2c1nc(Cc1ccccc1)n2Nc1ccccc1
T/C (dose: 100.0 mg/kg/injection, schedule: Q01DX001 (ip), vehicle: Klucel (hydroxypropylcellulose) (HPC)): 87 % of control | T/C (dose: 200.0 mg/kg/injection, schedule: Q01DX001 (ip), vehicle: Klucel (hydroxypropylcellulose) (HPC)): 91 % of control | T/C (dose: 400.0 mg/kg/injection, schedule: Q01DX001 (ip), vehicle: Klucel (hydroxypropylcellulose) (HPC)): 87 % of control

COC(=O)C(c1c(O)cc(C)oc1=O)C(C(=O)OC)c1c(O)cc(C)oc1=O (stereo not drawn)
T/C [1]: 96 % of control | T/C [2]: 95 % of control | T/C [3]: 96 % of control

C=CCn1cnc2c(=S)nc[nH]c21
T/C (dose: 12.5 mg/kg/injection, schedule: Q01DX009 (ip), vehicle: saline with Tween-80): 104 % of control | T/C (dose: 25.0 mg/kg/injection, schedule: Q01DX009 (ip), vehicle: saline with Tween-80): 104 % of control | T/C (dose: 50.0 mg/kg/injection, schedule: Q01DX009 (ip), vehicle: saline with Tween-80): 109 % of control | T/C (dose: 100.0 mg/kg/injection, schedule: Q04DX003 (ip), vehicle: saline with Tween-80): 109 % of control | T/C (dose: 200.0 mg/kg/injection, schedule: Q04DX003 (ip), vehicle: saline with Tween-80): 100 % of control

C[N+]12CCO[B-]1(c1ccccc1)OCC2 (stereo not drawn)
T/C (dose: 60.0 mg/kg/injection, schedule: Q01DX005 (ip), vehicle: saline): 108 % of control | T/C (dose: 120.0 mg/kg/injection, schedule: Q01DX005 (ip), vehicle: saline): 100 % of control | T/C (dose: 240.0 mg/kg/injection, schedule: Q01DX005 (ip), vehicle: saline): 100 % of control

CN1CCN2c3ccccc3Cc3ccccc3C2C1 (stereo not drawn)
T/C (dose: 6.25 mg/kg/injection, schedule: Q01DX009 (ip), vehicle: saline): 90 % of control | T/C (dose: 12.5 mg/kg/injection, schedule: Q01DX009 (ip), vehicle: saline): 94 % of control | T/C (dose: 25.0 mg/kg/injection, schedule: Q01DX009 (ip), vehicle: saline): 105 % of control and 107 % of control | T/C (dose: 50.0 mg/kg/injection, schedule: Q01DX009 (ip), vehicle: saline): 118 % of control and 119 % of control

CC1=CC(Cc2ccccc2)N(C)C(C(N)=O)C1 (stereo not drawn)
T/C (dose: 50.0 mg/kg/injection, schedule: Q01DX005 (ip), vehicle: Klucel (hydroxypropylcellulose) (HPC)): 102 % of control | T/C (dose: 100.0 mg/kg/injection, schedule: Q01DX005 (ip), vehicle: Klucel (hydroxypropylcellulose) (HPC)): 101 % of control

Clc1ccccc1CN1COc2c(ccc3cccnc23)C1
T/C [1]: 103 % of control | T/C [2]: 100 % of control | T/C [3]: 100 % of control

COC(=O)C(=O)C1(c2ccccc2)C(=O)C(c2ccccc2)=CC1O (stereo not drawn)
T/C (dose: 60.0 mg/kg/injection, schedule: Q01DX005 (ip), vehicle: saline + Tween-80 + alcohol): 104 % of control | T/C (dose: 120.0 mg/kg/injection, schedule: Q01DX005 (ip), vehicle: saline + Tween-80 + alcohol): 101 % of control | T/C (dose: 240.0 mg/kg/injection, schedule: Q01DX005 (ip), vehicle: saline + Tween-80 + alcohol): 100 % of control

Cn1nnc2c(C(N)=O)ncn2c1=O
T/C (dose: 25.0 mg/kg/injection, schedule: Q01DX005 (ip), vehicle: saline with Tween-80): 118 % of control | T/C (dose: 25.0 mg/kg/injection, schedule: Q01DX005 (ip), vehicle: saline): 119 % of control and 121 % of control | T/C [4]: 189 % of control | T/C (dose: 100.0 mg/kg/injection, schedule: Q01DX005 (ip), vehicle: saline): 164 % of control and 217 % of control | T/C [5]: 254 % of control | T/C (dose: 200.0 mg/kg/injection, schedule: Q01DX005 (ip), vehicle: saline): 225 % of control and 87 % of control

COC(=O)C1(C(=O)OC)CCCC2=NOC3CCC1C23 (stereo not drawn)
T/C (dose: 6.25 mg/kg/injection, schedule: Q01DX002 (ip), vehicle: Klucel (hydroxypropylcellulose) (HPC)): 107 % of control | T/C (dose: 12.5 mg/kg/injection, schedule: Q01DX002 (ip), vehicle: Klucel (hydroxypropylcellulose) (HPC)): 100 % of control | T/C (dose: 25.0 mg/kg/injection, schedule: Q01DX002 (ip), vehicle: Klucel (hydroxypropylcellulose) (HPC)): 93 % of control

COc1cc([C@@H]2c3cc4c(cc3C[C@H]3COC(=O)[C@@H]32)OCO4)cc2c1OCO2
T/C (dose: 1.8 mg/kg/injection, schedule: Q01DX009 (ip), vehicle: distilled water + Tween-80): 113 % of control | T/C (dose: 3.0 mg/kg/injection, schedule: Q01DX009 (ip), vehicle: Klucel (hydroxypropylcellulose) (HPC)): 109 % of control | T/C (dose: 3.75 mg/kg/injection, schedule: Q01DX009 (ip), vehicle: distilled water + Tween-80): 95 % of control | T/C (dose: 6.0 mg/kg/injection, schedule: Q01DX009 (ip), vehicle: Klucel (hydroxypropylcellulose) (HPC)): 118 % of control | T/C (dose: 12.0 mg/kg/injection, schedule: Q01DX009 (ip), vehicle: Klucel (hydroxypropylcellulose) (HPC)): 122 % of control

CC12OC(=O)CC1C(c1ccccc1)(c1ccccc1)O2 (stereo not drawn)
T/C (dose: 60.0 mg/kg/injection, schedule: Q01DX005 (ip), vehicle: saline with Tween-80): 100 % of control | T/C (dose: 120.0 mg/kg/injection, schedule: Q01DX005 (ip), vehicle: saline with Tween-80): 94 % of control | T/C (dose: 240.0 mg/kg/injection, schedule: Q01DX005 (ip), vehicle: saline with Tween-80): 88 % of control

O=NN(CCCl)C(=O)NC1CCN(Cc2ccccc2)CC1
T/C (dose: 12.5 mg/kg/injection, schedule: Q04DX003 (ip), vehicle: other): 154 % of control | T/C (dose: 12.5 mg/kg/injection, schedule: Q04DX003 (ip), vehicle: water): 184 % of control | T/C (dose: 25.0 mg/kg/injection, schedule: Q04DX003 (ip), vehicle: other): 183 % of control | T/C (dose: 25.0 mg/kg/injection, schedule: Q04DX003 (ip), vehicle: water): 225 % of control | T/C (dose: 50.0 mg/kg/injection, schedule: Q04DX003 (ip), vehicle: other): 287 % of control | T/C (dose: 50.0 mg/kg/injection, schedule: Q04DX003 (ip), vehicle: water): 281 % of control | T/C (dose: 100.0 mg/kg/injection, schedule: Q04DX003 (ip), vehicle: other): 361 % of control

COc1cccc(N=Nc2c(C)nn(C(=S)S)c2C)c1
T/C (dose: 50.0 mg/kg/injection, schedule: Q01DX005 (ip), vehicle: saline with Tween-80): 101 % of control | T/C [4]: 100 % of control | T/C [5]: 94 % of control
